Literature values as cited in patent US20120087953A1, “PHARMACEUTICAL COMPOSITIONS OF ACTIVE PHARMACEUTICAL INGREDIENT COMPRISING SULPHONYLUREA MOIETY WITH EXCELLENT DISSOLUTION PROPERTIES” (LEK PHARMACEUTICALS D.D., priority 2009, published 2012).

Details: acidic medium, 37° C.

- solubility: less than 0.001 mg/mL
SMILES: CCC1=C(C)CN(C(=O)NCCc2ccc(S(=O)(=O)NC(=O)N[C@H]3CC[C@H](C)CC3)cc2)C1=O [glimepiride]
